Results reported in patent publication US20070082883A1, “HIV protease inhibitors” (THE BOARD OF TRUSTEES OF THE UNIVERSITY OF ILLINOIS, priority 2002, published 2007).
Non-standard residues stand in square brackets, D forms with d. Residues, ends and D or L forms follow the SMILES beside them. Phe(4-NO2) = N[C@@H](Cc1ccc([N+](=O)[O-])cc1)C(=O)O; Nle = CCCC[C@H](N)C(=O)O; 2Abz = Nc1ccccc1C(=O)O

target: T1, HIV-1 protease (Human immunodeficiency virus type 1 group M subtype B, UniProt P04585); test: Kinetic measurements of the cleavage of anthranilyl fluorogenic substrate by HIV-1 protease; type: biochemical; conditions: purified refolded HIV-1 protease; read-out: Michaelis constant for the substrate Km
T1 construct: made in house; host or cells: E. coli BL21 (dE3)pLysS, pET30a vector
From the text: The HIV-1 protease gene was subcloned into the pET30a vector (Novagen) and then transformed into BL21 (dE3)pLysS cells for protein expression. Protein expression and purification were followed according to Tang's procedure (Hong et al., Biochemistry, 1996, 35, 10627-10633). […] The inclusion body containing some bacterial proteins was thoroughly washed by using TRITON X-100, solubilized in BM urea and passed through the Q-sepharose column to remove the bacterial proteins which interfered with subsequent refolding steps. HIV-1 protease was refolded from the urea to an active form by dialysis. As a final step, gel filtration chromatography was used to remove impurities after refolding. Activities of purified HIV-1 protease were examined using a fluorogenic substrate, 2-aminobenzoyl-Thr-Ile-Nle-Phe(pNO2)-Gln-Arg-NH2 (Novabiochem). […] Using the first rate equation, kcat is calculated. In the condition of So<<Km, v=Eo(kcat/Km)So, where Eo is the total enzyme concentration, and So is the substrate concentrate.

Q: With `CCCC[C@H](NC(=O)[C@@H](NC(=O)[C@@H](NC(=O)c1ccccc1N)[C@@H](C)O)[C@@H](C)CC)C(=O)N[C@@H](Cc1ccc([N+](=O)[O-])cc1)C(=O)N[C@@H](CCC(N)=O)C(=O)N[C@@H](CCCNC(=N)N)C(N)=O` [2-aminobenzoyl-Thr-Ile-Nle-Phe(pNO2)-Gln-Arg-NH2] (H-[2Abz]TI[Nle][Phe(4-NO2)]QR-NH2) as the compound, how does the Km read?
A: 4.5 µM

test system: not given; test: not given; conditions: not given

Q: For `CC(C)CN(C[C@@H](O)[C@H](Cc1ccccc1)NC(=O)OC1CC2CCO[C@@H]2C1)S(=O)(=O)c1ccc(O)c(O)c1` (stereo partly shown) [Compound 88], which melting point is on record?
A: 80 to 82 °C

Q: For `CNCc1ccc(S(=O)(=O)N(CC(C)C)C[C@@H](O)[C@H](Cc2ccccc2)NC(=O)OC2CO[C@H]3OCCC23)cc1` (stereo partly shown) [Compound 119], which melting point is on record?
A: 57 to 62 °C

target: T1, HIV-1 protease; test: HIV-1 Protease Inhibition Assay; type: biochemical; conditions: fluorogenic substrate assay
How it was run: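 Recombinant HIV-1 protease expressed in E. coli BL21(DE3)pLysS, refolded from urea and purified. Activity followed with fluorogenic substrate 2-aminobenzoyl-Thr-Ile-Nle-Phe(pNO2)-Gln-Arg-NH2 under So<<Km.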

Q: Which results are given for `CC(C)CN(C[C@@H](O)[C@H](Cc1ccccc1)NC(=O)OC1CCCC12CCCO2)S(=O)(=O)c1cccc(O)c1` (stereo partly shown) [Compound 75]?
A: IC50: 6.7 nM; Ki: 2.1 nM

Q: For `Cc1cc(S(=O)(=O)N(CC(C)C)C[C@@H](O)[C@H](Cc2ccccc2)NC(=O)O[C@@H]2CC3CCO[C@@H]3C2)ccc1CO` (stereo partly shown) [Compound 259], which IC50 is on record?
A: 2.8 nM

Q: With `O=C(N[C@@H](Cc1ccccc1)[C@H](O)CN1CCCC/C=C/CCCC(O)c2cccc(c2)S1(=O)=O)OCc1cccnc1` (stereo partly shown) [Compound 239] as the compound, how does the IC50 read?
A: 34 nM

Q: And the Ki?
A: 11 nM

Q: What does the source list for `O=C(N[C@@H](Cc1ccccc1)[C@H](O)CN1CCCCCCCCCOc2ccccc2COC1=O)O[C@@H]1CC2CCO[C@@H]2C1` (stereo partly shown) [Compound 228]?
A: IC50: 2200 nM; Ki: 638 nM

Q: Which results are given for `CC(C)CN(C[C@@H](O)[C@H](Cc1ccccc1)NC(=O)OC(C)(C)C)S(=O)(=O)c1cncc(N)c1` [Compound 164]?
A: IC50: 33 nM; Ki: 10 nM

Q: Which IC50 does the source give for `Cc1ccc(S(=O)(=O)N(CCN(C)C)C[C@@H](O)[C@H](Cc2ccccc2)NC(=O)O[C@H]2C[C@H]3CCO[C@H]3C2)cc1CO` [Compound 159] here?
A: 204 nM

Q: And the Ki?
A: 63 nM

Q: Which results are given for `O=C(N[C@@H](Cc1ccccc1)[C@H](O)CN(CCN1CCOCC1)S(=O)(=O)c1ccc(Cl)c(O)c1)OC1CO[C@H]2OCCC12` (stereo partly shown) [Compound 154]?
A: IC50: 25 nM; Ki: 7.8 nM

Q: Which IC50 does the source give for `CC(C)(C)OC(=O)N[C@@H](Cc1ccccc1)[C@H](O)CN(C[C@H]1CCC(=O)N1)S(=O)(=O)c1ccc([N+](=O)[O-])cc1` [Compound 307a, {(1S)-Benzyl-(2R)-hydroxy-3-[(4-nitrobenzenesulfonyl)-(5-oxopyrrolidin-(2R)-ylmethyl)amino]propyl}-carbamic acid tert-butyl ester] here?
A: 7 nM

Q: Which IC50 does the source give for `CC(C)CN(C[C@@H](O)[C@H](Cc1ccccc1)NC(=O)O[C@@H]1CC2CCO[C@@H]2C1)S(=O)(=O)c1ccc(N)cc1` (stereo partly shown) [Compound 261] here?
A: 2.2 nM

Q: For `CC(C)CN(C[C@@H](O)[C@H](Cc1ccccc1)NC(=O)O[C@H]1CO[C@H]2OCC[C@H]21)[C@H]1CCNC1=O` [Compound 249], which Ki is on record?
A: 37 nM

Q: With `O=C1CC[C@H](CN(C[C@@H](O)[C@H](Cc2ccccc2)NC(=O)OC2CC[C@H]3OCC[C@@H]23)S(=O)(=O)c2ccc([N+](=O)[O-])cc2)N1` (stereo partly shown) [Compound 279] as the compound, how does the IC50 read?
A: 0.34 nM

Q: Which results are given for `COc1ccc(S(=O)(=O)N(C[C@@H](O)[C@H](Cc2ccccc2)NC(=O)O[C@@H]2CC3CCO[C@@H]3C2)C2CN(C)C2)cc1` (stereo partly shown) [Compound 204]?
A: IC50: 5.6 nM; Ki: 1.7 nM

Q: For `COc1ccc(S(=O)(=O)N(CC(C)C)C[C@@H](O)[C@H](Cc2ccccc2)NC(=O)O[C@H]2CC[C@]3(CCCO3)C2)cc1` [Compound 145d], which IC50 is on record?
A: 4.6 nM

Q: Which IC50 does the source give for `COc1ccc(S(=O)(=O)N(CC(C)C)C[C@@H](O)[C@H](Cc2ccc(OCc3ccccc3)cc2)NC(=O)O[C@H]2CO[C@H]3OCCC32)cc1` (stereo partly shown) [Compound 212] here?
A: 30 nM

Q: And the Ki?
A: 9.3 nM

Q: Which IC50 does the source give for `C=CCCCCOc1ccccc1COC(=O)N(CCCC=C)C[C@@H](O)[C@H](Cc1ccccc1)NC(=O)O[C@@H]1CC2CCO[C@@H]2C1` (stereo partly shown) [Compound 226] here?
A: > 2000 nM

Q: Which IC50 does the source give for `COCc1ccc(S(=O)(=O)N(CC(C)C)C[C@@H](O)[C@H](Cc2ccccc2)NC(=O)OC2CC3CCO[C@@H]3C2)cc1` (stereo partly shown) [Compound 130] here?
A: 0.8 nM

Q: Which IC50 does the source give for `COc1ccc(S(=O)(=O)N(C[C@@H](O)[C@H](Cc2ccccc2)NC(=O)O[C@@H]2CO[C@@H]3OCC[C@@H]32)C2CN(C)C2)cc1` [Compound 202] here?
A: 31 nM

Q: What about the Ki of the same compound?
A: 9.7 nM

Q: With `CC(C)CN(C[C@@H](O)[C@H](Cc1ccccc1)NC(=O)OC1CC2CCO[C@@H]2C1)S(=O)(=O)c1ccc(CN)cc1` (stereo partly shown) [Compound 125] as the compound, how does the IC50 read?
A: 3.5 nM

Q: What about the Ki of the same compound?
A: 1.1 nM

Q: For `Cc1ccc(S(=O)(=O)N(C[C@@H](O)[C@H](Cc2ccccc2)NC(=O)OC2CO[C@H]3OCCC23)C2CCOC2)cc1CO` (stereo partly shown) [Compound 161], which IC50 is on record?
A: 2 nM

Q: And the Ki?
A: 1.6 nM

Q: With `COc1ccc(S(=O)(=O)N(C[C@H]2CCC(=O)N2)C[C@@H](O)[C@H](Cc2ccccc2)NC(=O)OC(C)(C)C)cc1` [Compound 271, ((1S)-Benzyl-(2R)-hydroxy-3-[(4-methoxybenzene-sulfonyl)-(5-oxopyrrolidin-(2R)-ylmethyl)amino]-propyl)carbamic acid tert-butyl ester] as the compound, how does the IC50 read?
A: 3 nM

Q: With `CC(C)(C)NC(=O)[C@@H]1C[C@@H]2CCCC[C@@H]2CN1C[C@@H](O)[C@H](Cc1ccccc1)NC(=O)O[C@H]1CCC2(CCCO2)C1` (stereo partly shown) [Compound 145a] as the compound, how does the IC50 read?
A: 500 nM

Q: For `COc1ccc(S(=O)(=O)N(C[C@@H]2CCC(=O)N2)C[C@@H](O)[C@H](Cc2ccccc2)NC(=O)OC2CC[C@H]3OCC[C@@H]23)cc1` (stereo partly shown) [Compound 278], which IC50 is on record?
A: 0.16 nM

Q: With `CC(C)CN(C[C@@H](O)[C@H](Cc1ccccc1)NC(=O)O[C@H]1CCOC1)S(=O)(=O)c1ccc(CN2CCOCC2)cc1` [Compound 139] as the compound, how does the IC50 read?
A: 968 nM

Q: Which results are given for `O=C(N[C@@H](Cc1ccccc1)[C@H](O)CN1CCCCCCCCCCOc2cccc(c2)S1(=O)=O)O[C@@H]1CC2CCO[C@@H]2C1` (stereo partly shown) [Compound 236]?
A: IC50: 11 nM; Ki: 3.4 nM

Q: Which IC50 does the source give for `CC(C)CN(C[C@H](O)C(Cc1ccccc1)NC(=O)O[C@@H]1C[C@@H]2CCO[C@@H]2C1)S(=O)(=O)c1ccc(CO)cc1` (stereo partly shown) [Compound 254] here?
A: 1 nM

Q: What does the source list for `CC(C)CN(C[C@@H](O)[C@H](Cc1ccccc1)NC(=O)O[C@H]1CCOC1)S(=O)(=O)c1cncc([N+](=O)[O-])c1` [Compound 169]?
A: IC50: 7.1 nM; Ki: 22 nM

Q: Which IC50 does the source give for `CC(C)CN(C[C@@H](O)[C@H](Cc1ccccc1)NC(=O)OC1CC2CCO[C@@H]2C1)S(=O)(=O)c1cccc(CO)c1` (stereo partly shown) [Compound 113] here?
A: 4 nM

Q: With `CC(C)CN(C[C@@H](O)[C@H](Cc1ccccc1)NC(=O)O[C@@H]1CC2CCO[C@@H]2C1)NS(=O)(=O)c1ccc(F)c([N+](=O)[O-])c1` (stereo partly shown) [Compound 184] as the compound, how does the IC50 read?
A: 1200 nM

Q: And the Ki?
A: 351 nM

Q: Which results are given for `O=C(N[C@@H](Cc1ccccc1)[C@H](O)CN1CCCCCCCCOc2cccc(c2)S1(=O)=O)O[C@H]1CO[C@H]2OCCC21` (stereo partly shown) [Compound 234]?
A: IC50: 7.3 nM; Ki: 2.3 nM

Q: Which IC50 does the source give for `COc1ccc(S(=O)(=O)N(C[C@@H](O)[C@H](Cc2ccccc2)NC(=O)O[C@H]2CO[C@H]3OCCC32)NC(=O)OC(C)(C)C)cc1` (stereo partly shown) [Compound 188] here?
A: 3.9 nM

Q: And the Ki?
A: 1.2 nM

Q: For `CC(C)CN(C[C@@H](O)[C@H](Cc1ccccc1)NC(=O)O[C@@H]1CC2CCO[C@@H]2C1)S(=O)(=O)c1ccc(O)c(O)c1` (stereo partly shown) [Compound 258], which IC50 is on record?
A: 3.9 nM

Q: Which results are given for `CC(C)CN(C[C@@H](O)[C@H](Cc1ccccc1)NC(=O)O[C@H]1C[C@H]2CCO[C@H]2C1)S(=O)(=O)c1cncc([N+](=O)[O-])c1` [Compound 171]?
A: IC50: 14 nM; Ki: 4.3 nM

Q: For `CC(C)(C)OC(=O)NN(C[C@@H](O)[C@H](Cc1ccccc1)NC(=O)O[C@@H]1CC2CCO[C@@H]2C1)S(=O)(=O)c1ccc(F)c(N)c1` (stereo partly shown) [Compound 191], which IC50 is on record?
A: 9.6 nM

Q: What about the Ki of the same compound?
A: 3 nM

Q: For `CC(C)CN(C[C@@H](O)[C@H](Cc1ccccc1)NC(=O)OC1CC2CCO[C@@H]2C1)S(=O)(=O)c1ccc(O)c(O)c1` (stereo partly shown) [Compound 88], which Ki is on record?
A: 1.2 nM

Q: With `CC(C)CN(C[C@@H](O)[C@H](Cc1ccccc1)NC(=O)O[C@H]1CCOC1)S(=O)(=O)c1ccc(CN2CCN(C)CC2)cc1` [Compound 138] as the compound, how does the IC50 read?
A: 270 nM

Q: With `O=C(N[C@@H](Cc1ccccc1)[C@H](O)CN1CCCC/C=C\CCOc2cccc(c2)S1(=O)=O)O[C@H]1CO[C@H]2OCCC21` (stereo partly shown) [Compound 233] as the compound, how does the IC50 read?
A: 8.7 nM

Q: And the Ki?
A: 2.7 nM

Q: With `Cc1ccc(S(=O)(=O)N(CC(C)C)C[C@@H](O)[C@H](CC2CCN(Cc3ccccc3)CC2)NC(=O)OC2CO[C@H]3OCCC23)cc1` (stereo partly shown) [Compound 149] as the compound, how does the IC50 read?
A: 20 nM

Q: Which IC50 does the source give for `CC(C)CN(C[C@@H](O)[C@H](Cc1ccccc1)NC(=O)OC1CC2CCO[C@@H]2C1)S(=O)(=O)c1cc(OC2CCCCO2)cc(OC2CCCCO2)c1` (stereo partly shown) [Compound 99] here?
A: 3.9 nM

Q: And the Ki?
A: 1.2 nM

Q: Which results are given for `CC(C)CN(C[C@@H](O)[C@H](Cc1ccccc1)NC(=O)OC1CC2CCO[C@@H]2C1)S(=O)(=O)Cc1ccccc1` (stereo partly shown) [Compound 133]?
A: IC50: 48 nM; Ki: 15 nM

Q: For `CNCc1ccc(S(=O)(=O)N(CC(C)C)C[C@@H](O)[C@H](Cc2ccccc2)NC(=O)OC2CO[C@H]3OCCC23)cc1` (stereo partly shown) [Compound 119], which IC50 is on record?
A: 3.5 nM

Q: And the Ki?
A: 1.1 nM

Q: With `COc1ccc(S(=O)(=O)N(C[C@@H](O)[C@H](Cc2ccccc2)NC(=O)OC(C)(C)C)NC(=O)OC(C)(C)C)cc1` [Compound 187] as the compound, how does the IC50 read?
A: 534 nM

Q: And the Ki?
A: 166 nM

Q: Which results are given for `CC(C)CN(C[C@@H](O)[C@H](Cc1ccccc1)NC(=O)OC1CC2CCO[C@@H]2C1)S(=O)(=O)c1cccc2cccnc12` (stereo partly shown) [Compound 132]?
A: IC50: 12 nM; Ki: 3.7 nM

Q: With `Cc1ccc(S(=O)(=O)N(CCN(C)C)C[C@@H](O)[C@H](Cc2ccccc2)NC(=O)OC2CO[C@H]3OCCC23)cc1CO` (stereo partly shown) [Compound 158] as the compound, how does the IC50 read?
A: 105 nM

Q: And the Ki?
A: 32 nM

Q: Which IC50 does the source give for `COc1ccc(S(=O)(=O)N(N)C[C@@H](O)[C@H](Cc2ccccc2)NC(=O)O[C@H]2CO[C@H]3OCCC32)cc1` (stereo partly shown) [Compound 189] here?
A: 55 nM

Q: And the Ki?
A: 17 nM
